One block for each compound: values may come before it.
Assays:
MtCPA [1] = biological target: T1, MtCPA (Medicago truncatula, UniProt G7ITU5); assay: X-ray crystallography of complex, […] Å; assay type: binding; settings: cocrystallized with 17 mM cadaverine, pH 7.0; active site, non-covalent
T1 construct: gene MTR_2g086600; recombinant in E. coli BL21 Gold (pMCSG68); His6 tag cut by TEV, N-terminal Ser-Asn-Ala linker remains; homooctamer, active site fenced by dimer mate

MtCPA [2] = biological target: T2, MtCPA (Medicago truncatula, UniProt G7ITU5, C158S); assay: X-ray crystallography of complex, […] Å; assay type: binding; settings: cocrystallized with 10 mM putrescine, pH 7.0; active site, non-covalent
T2 construct: gene MTR_2g086600; recombinant in E. coli BL21 Gold (pMCSG68); His6 tag cut by TEV, N-terminal Ser-Asn-Ala linker remains; homooctamer, active site fenced by dimer mate
T2 sequence (G7ITU5 1-301 C158S): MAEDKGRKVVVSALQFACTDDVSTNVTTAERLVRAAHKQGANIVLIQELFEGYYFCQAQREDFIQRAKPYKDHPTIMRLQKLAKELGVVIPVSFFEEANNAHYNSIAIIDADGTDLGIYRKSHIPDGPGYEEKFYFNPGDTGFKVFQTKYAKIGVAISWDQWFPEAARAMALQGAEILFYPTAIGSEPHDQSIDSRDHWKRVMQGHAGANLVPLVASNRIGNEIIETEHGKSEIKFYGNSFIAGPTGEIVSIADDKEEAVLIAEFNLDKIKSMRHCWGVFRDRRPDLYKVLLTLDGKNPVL

[3] = biological target: MtCPA-C158S mutant (Medicago truncatula); assay: crystal structure; hanging drop, 20% PEG3350, 8% Tacsimate pH 7.0 (with or without 10% glycerol); space group P2(1)2(1)2, two octamers in the asymmetric unit; data at 100 K
MtCPA [4] = biological target: T1, MtCPA; assay: X-ray crystallography of complex, […] Å; assay type: binding; settings: covalent; bound to Cys158 in active site; formed in crystal from 10 mM putrescine (probably with CO2), pH 7.0
[5] = biological target: N-carbamoylputrescine amidohydrolase from Medicago truncatula (MtCPA), wild type (Medicago truncatula); assay: crystal structure; hanging drop, 20% PEG3350, 8% Tacsimate pH 7.0 (with or without 10% glycerol); space group P2(1)2(1)2, two octamers in the asymmetric unit; data at 100 K

T1 sequence (G7ITU5 entry or part of it): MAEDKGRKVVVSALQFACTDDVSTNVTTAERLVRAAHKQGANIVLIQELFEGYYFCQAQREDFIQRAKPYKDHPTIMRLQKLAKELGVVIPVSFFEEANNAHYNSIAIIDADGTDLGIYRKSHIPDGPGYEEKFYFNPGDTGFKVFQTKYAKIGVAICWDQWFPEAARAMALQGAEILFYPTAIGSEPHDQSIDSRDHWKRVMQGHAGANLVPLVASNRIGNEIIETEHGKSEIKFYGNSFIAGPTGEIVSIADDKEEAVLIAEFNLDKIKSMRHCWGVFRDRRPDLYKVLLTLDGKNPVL

Compound: NCCCCCN [CAD, 1,5-diaminopentane]
X-ray crystallography of complex, 2.19 Å (MtCPA [1]): we do indeed observe CAD in the active site

Compound: NCCCCN [PUT, 1,4-diaminobutane]
X-ray crystallography of complex, 2.29 Å (MtCPA [2]): MtCPA-C158S mutant cocrystallized with PUT clearly shows the ligand without any modifications

stoichiometry N [3]: 8
Compound: MtCPA-C158S mutant (enzyme)

Compound: NCCCCNC(O)O [DHMP, N-(dihydroxymethyl)putrescine]
X-ray crystallography of complex, 1.97 Å (MtCPA [4]): DHMP was covalently bound to the catalytic Cys158

stoichiometry N [5]: 8
Compound: N-carbamoylputrescine amidohydrolase from Medicago truncatula (MtCPA), wild type (enzyme)
